Tests used:
[1] = system: Protein S activity; test: Protein S activity assay, interference of direct oral anticoagulants; format: biochemical; conditions: arrow grades; antigen-based assay unaffected, clot-based affected
Description: (§1) Coagulation tests or assays most affected by the presence of anticoagulants in the plasma sample will be the tests that involve the clotting factor to which the coagulation inhibitor is directed, leading to false-positive or false-negative results (Table 1).

[2] = system: PT/clotting factors; test: PT/clotting factors, interference of direct oral anticoagulants; format: biochemical; conditions: arrow grades, key not given; all factors affected
Description: as §1

[3] = system: Lupus anticoagulant; test: Lupus anticoagulant test, interference of direct oral anticoagulants; format: biochemical; conditions: arrow grades; false positive due to high screen/confirmation assay ratios
Description: as §1

[4] = system: platelet-poor plasma; test: Prothrombin Time (PT) assay on plasma with DOACs; format: biochemical; conditions: for Effect on PT of platelet-poor plasma: increasing concentrations of DOACs, no charcoal (FIG. 2b)
Description: (§2) For the preparation of such plasma samples, blood components of a blood sample from a patient are typically separated by two centrifugation steps, both at 2500 g for 15 min (FIG. 1). The first centrifugation step will separate the blood in solid substances (e.g. red and white blood cells) (i.e. the lower phase) and blood plasma (i.e. upper phase). Subsequently, the blood plasma is collected and submitted to a second centrifugation step, which pelletizes the residual blood cells and/or platelets. The upper phase obtained by the second centrifugation step (i.e. platelet-poor plasma) can be used for haemostatic tests. However, the platelet-poor plasma obtained by standard methods will comprise direct anticoagulants (e.g. DOACs), if the patient is treated therewith, which may interfere with several clotting times tests (Table 1).
(§3) A blood sample obtained from a subject was centrifuged at 2500 g during 15 min to separate the blood into solid substances (e.g. red and white blood cells) (i.e. lower phase) and blood plasma (i.e. upper phase).
(§4) The plasma obtained from the first (and only) centrifugation step was incubated with activated charcoal (10 mg/ml of plasma) for 5 minutes and the plasma was subsequently recovered from the activated charcoal by passing the plasma through a filter with 0.65 μm pores (FIG. 3). Passing the plasma through the filter was achieved by a short centrifugation.
(§5) The plasma sample was incubated with different concentrations of activated charcoal (i.e. 5 mg/ml, 10 mg/ml or 15 mg/ml) for 5 minutes and the plasma was subsequently recovered from the activated charcoal by passing the plasma through a filter with 0.65 μm pores and activated charcoal by a short centrifugation.

[5] = system: aPTT/clotting factors; test: aPTT/clotting factors, interference of direct oral anticoagulants; format: biochemical; conditions: arrow grades, key not given; all factors affected
Description: as §1

[6] = system: platelet-poor plasma; test: activated Partial Thromboplastin Time (aPTT) assay on plasma with DOACs; format: biochemical; conditions: for Effect on aPTT of platelet-poor plasma: increasing concentrations of DOACs, no charcoal (FIG. 2a)
Description: as §2, with “Standard tests for in vitro diagnosis of a haemostasis disorder, for example in hospital laboratories, are generally performed on plasma samples obtain from a patient. For” for “For”
as §3
as §4, with “centrifugation. The filter with 0.65 μm pores allowed to efficiently remove the activated charcoal and residual blood cells and/or platelets, which have a larger size than 0.65 μm, from the plasma with a minimal interference with blood coagulation tests.” for “centrifugation.”
as §5, with “Plasma was obtained by centrifuging once a blood sample obtained from a subject as described in Example 2. The” for “The”

[7] = system: Protein C activity; test: Protein C activity assay, interference of direct oral anticoagulants; format: biochemical; conditions: arrow grades; chromogenic and antigen-based assays unaffected, clot-based affected
Description: as §1

[8] = system: APCR; test: APCR (activated protein C resistance) assay, interference of direct oral anticoagulants; format: biochemical; conditions: for Interference with APCR: arrow grades, aPTT-based assays are mostly affected
Description: as §1

[9] = system: Antithrombin activity; test: Antithrombin activity assay, interference of direct oral anticoagulants; format: biochemical; conditions: arrow grades
Description: as §1

[10] = system: patient's plasma; test: LA diagnostic assays (PTT LA, Staclot LA, DRVVT, DRVVT confirm) on patient's plasma; format: biochemical; conditions: platelet-poor plasma of patient treated with rivaroxaban (339 ng per ml), DRVVT confirm (FIG. 6)
Description: The efficacy of the method as disclosed herein was assessed in a clinical situation. […] For LA diagnosis, several in vitro diagnosis assays were performed on the patient's plasma, including Partial Thromboplastin Time-Lupus anticoagulant Screen (PTT LA), PTT LA confirm (Staclot LA), Dilute Russel Viper Venom Time screen (DRVVT) and DRVVT confirm.

[11] = human, in vivo

rivaroxaban per ml of plasma in patient plasma sample [11] | SMILES | Interference with Protein S activity [1] | Interference with PT/clotting factors [2] | Interference with Lupus anticoagulant [3] | Effect on PT of platelet-poor plasma [4] | Interference with aPTT/clotting factors [5] | Effect on aPTT of platelet-poor plasma [6] | Interference with Protein C activity [7] | Interference with APCR [8] | Interference with Antithrombin activity [9] | Clotting time in LA diagnostic assays, untreated plasma [10] | Effect of Rivaroxaban on PT after activated charcoal treatment ([4]; activated charcoal 5, 10 or 15 mg/ml, 5 minutes, 0.65 μm filter, Rivaroxaban up to 1000 ng/ml (FIG. 5b)) | Effect of Rivaroxaban on aPTT after activated charcoal treatment ([6]; activated charcoal 5, 10 or 15 mg/ml, 5 minutes, 0.65 μm filter, Rivaroxaban up to 1000 ng/ml (FIG. 5a)) | Interference with Pefakit APCR Factor V Leiden ([8]; Pefakit APCR Factor V Leiden kit)
– | COc1ccc(-n2nc(C(N)=O)c3c2C(=O)N(c2ccc(N4CCCCC4=O)cc2)CC3)cc1 [Apixaban, 1-(4-methoxyphenyl)-7-oxo-6-[4-(2-oxopiperidin-1-yl)phenyl]-4,5-dihydropyrazolo[3,4-c]pyridine-3-carboxamide] | —/↑ | ↓/↓↓ | —/↑ | prolonged | ↓/↓↓ | prolonged | —/↑ | ↑ | —/↑ | – | – | – | –
– | COc1ccc(NC(=O)c2ccc(C(=N)N(C)C)cc2)c(C(=O)Nc2ccc(Cl)cn2)c1 [Betrixaban] | – | ↓↓ | – | prolonged | ↓↓ | prolonged | – | – | – | – | – | – | –
– | CN1CCc2nc(C(=O)N[C@@H]3C[C@@H](C(=O)N(C)C)CC[C@@H]3NC(=O)C(=O)Nc3ccc(Cl)cn3)sc2C1 [Edoxaban, N′-(5-chloropyridin-2-yl)-N-[(1S,2R,4S)-4-(dimethylcarbamoyl)-2-[(5-methyl-6,7-dihydro-4H-[1,3]thiazolo[5,4-c]pyridine-2-carbonyl)amino]cyclohexyl]oxamide] | ↑ | ↓↓ | ↑/↑↑ | – | ↓/↓↓ | prolonged | – | ↑ | —/↑ | – | – | – | –
339 ng per ml | O=C(NC[C@H]1CN(c2ccc(N3CCOCC3=O)cc2)C(=O)O1)c1ccc(Cl)s1 [Rivaroxaban, 5-Chloro-N-({(5S)-2-oxo-3-[4-(3-oxo-4-morpholinyl)phenyl]-1,3-oxazolidin-5-yl}methyl)-2-thiophenecarboxamide] | —/↑ | ↓↓/↓↓↓ | ↑/↑↑ | prolonged | ↓↓ | prolonged | —/↑ | ↑ | —/↑ | prolongs the clotting time | completely removed | completely removed | No interference
